Results reported in patent US7060486B2, “Inhibition of sulfate-reducing-bacteria-mediated degradation using bacteria which secrete antimicrobials” (priority 1998, dated 2006).
Square brackets hold non-standard residues; d marks the D form. Ends that are not written are not given here. Peptide text beside a SMILES is read from it. Orn = NCCC[C@H](N)C(=O)O

How the values were obtained:
[1] = test system: P. fragi K; experiment: Growth of P. fragi K in overnight suspension cultures with antimicrobials; format: cell-based; details: 100 μg/mL, overnight suspension culture
[2] = test system: D. gigas (ATCC 19364); experiment: SRB inhibitory assay: viability after one-hour exposure, MPN technique; format: cell-based
Description: (§1) D. vulgaris (ATCC 29579) and D. gigas (ATCC 19364) were obtained from the American Type Culture Collection and cultivated in 15 mL screwcap tubes with 10 mL of modified Baar's medium (ATCC medium 1249) supplemented with 100 μL each of the oxygen-scavengers 4% sodium sulfide and Oxyrase (Oxyrase Inc., Mansfeld, Ohio). Initial cultures were grown from −85° C. glycerol stocks; all subsequent cultures were grown with a 3% inoculum from the initial culture maintained at 30° C. without shaking. […] SRB were also cultured periodically in the presence of 0.1% ferrous ammonium sulfate, and the presence of these sulfate-reducers was confirmed by the detection of black iron sulfide in the culture tubes. The desulfoviridin assay was also performed after each MPN assay to confirm the presence of D. vulgaris or D. gigas by its red color under UV light due to the release of the chromophore of the pignment desulfoviridin. (Postgate, 1984).
(§2) For determining the viability indices (Romeo, et al., 1988) of SRB, a late-exponential phase culture (O.D600 0.16 to 0.19 which corresponded to an initial cell number of 5–9×10^4 cells/mL) was exposed to various concentrations of antimicrobials for 1 hour at 30° C. One mL of cells was harvested, washed once in fresh modified Baar's medium to remove cellular debris, and resuspended in 1 mL of fresh modified Baar's medium supplemented with 10 μL each of Oxyrase (Oxyrase Inc., Mansfeld, Ohio) and 4% sodium sulphide. Aliquots of 450 μL were dispensed in 500 μL sterile eppendorf tubes and appropriate amounts of antimicrobials added and incubated at 30° C. The effectiveness of treatment was determined by the multiple-tube most-probable-number (MPN) fermentation technique. (Anonymous. Multiple-tube fermentation technique for members of the coliform group, pp. 9–45 to 9–51. In A. E. Greenberg, L. S. Clesceri, and A. D. Eaton (eds.), Standard Methods for the Examination of Water and Wastewater, 18 ed. American Public Health Association, American Water Works Association, and Water Pollution Control Federation, New York (1992)) (hereafter, Greenberg, 1992).
(§3) The MPN test for enumerating SRB was performed in three 12 mL tubes with a 1000 μL inoculum of SRB, three 12 mL tubes with a 500 μL inoculum, and three 12 mL tubes with a 100 μL inoculum. All nine tubes contained a final volume of 10 mL of modified Baar's medium supplemented with 100 μL each of 4% sodium sulfide and Oxyrase (Oxyrase Inc., Mansfeld, Ohio). The tubes were monitored for 72 hours to determine the number of tubes that were positive for growth. Growth was determined by the increase in culture turbidity, and the MPN index/mL was calculated using the Thomas formula. (Greenberg 1992).

[3] = test system: D. vulgaris (ATCC 29579); experiment: as above; format: cell-based
Description: as §1, §2, §3

[4] = test system: SRB (D. vulgaris) on 304 stainless steel; experiment: Continuous reactor with 304 stainless steel and SRB, electrochemical impedance spectroscopy; details: 100 μg/mL added to P. fragi K biofilm 24 hours before D. vulgaris
Description: Batch culture corrosion experiments using SAE 1018 mild steel coupons (2.5 cm diameter, 1.2 mm thick) were performed in triplicates in 250 mL Erlenmeyer flasks at 30° C. without shaking as described previously (Jayaraman et al., 1997a). A continuous reactor (Jayaraman et al., 1997c) was also used to develop biofilms on 304 stainless steel and monitor corrosion using electrochemical impedance spectroscopy (EIS) in a minimum of two independent reactors using a Solarton-Schlumberger electrochemical measurement unit (SI 1280, Schlumberger Technical Instruments Division, San Jose, Calif.) interfaced to a Macintosh computer (PowerMac 7100/80, Apple Computers, Cupertino, Calif.) running EISIS electrochemical experimentation software (University of California, Irvine) (similar commercial software, THALES, can also be used). The open circuit potential (OCP) was measured as the potential between the metal specimen and a Ag/AgCl reference electrode, and the polarization resistance (Rp) was determined as the low-frequency value of the impedance (where the imaginary part of the impedance was zero or negligible). Continuous culture corrosion rates were estimated as the inverse of the polarization resistance (Macdonald, D. D. and M. C. H. McCubre, Applications of impedance spectroscopy, p. 262–267. In J. R. Macdonald (ed.), Impedance spectroscopy: Emphasizing solid materials and systems, John Wiley & Sons, New York (1987); Stem, M., Journal of Electrochemical Society, 105(11):638–647 (1958)).
A continuous reactor was used to develop biofilms on metal surfaces as previously described (Jayaraman et al., 1997c). Electrochemical impedance spectroscopy (EIS) was used to obtain impedance data in at least duplicate experiments using a Solarton-Schlumberger electrochemical measurement unit (SI 1280, Schlumberger Technical Instruments Division, San Jose, Calif.) interfaced to a Macintosh computer (PowerMac 7100/80, Apple Computers, Cupertino, Calif.) running EISIS electrochemical experimentation software (University of California, Irvine) (THALES, a similar commercial software, can also be used). The open-circuit potential (OCP) was measured as the potential between the metal specimen and the reference electrode (Ag/AgCl), and the polarization resistance was determined as the dc limit of the impedance using the ANALEIS software developed by Mansfeld et al. (ASTM Special Technical Protocol 1154:186 (1992)). […]

[5] = test system: Gram-negative bacteria; details: cited from earlier work
[6] = test system: SRB (D. vulgaris) on SAE 1018 mild steel; experiment: Continuous reactor with SAE 1018 mild steel and SRB, electrochemical impedance spectroscopy
Text: A continuous reactor was used to develop biofilms on metal surfaces as previously described (Jayaraman et al., 1997c). Electrochemical impedance spectroscopy (EIS) was used to obtain impedance data in at least duplicate experiments using a Solarton-Schlumberger electrochemical measurement unit (SI 1280, Schlumberger Technical Instruments Division, San Jose, Calif.) interfaced to a Macintosh computer (PowerMac 7100/80, Apple Computers, Cupertino, Calif.) running EISIS electrochemical experimentation software (University of California, Irvine) (THALES, a similar commercial software, can also be used). The open-circuit potential (OCP) was measured as the potential between the metal specimen and the reference electrode (Ag/AgCl), and the polarization resistance was determined as the dc limit of the impedance using the ANALEIS software developed by Mansfeld et al. (ASTM Special Technical Protocol 1154:186 (1992)). Continuous culture corrosion rates were estimated from the experimental polarization resistance Rp based on the Stern-Geary equation Rp=B/Icorr, where B is a parameter depending on the Tafel slopes and icorr is the corrosion current density which can be converted into a corrosion rate using Faraday's law (Mansfeld, F., The polarization resistance technique for measuring corrosion currents, In Fontana, M. G., Staehle, R. W. (ed.), Advances in Corrosion Science and Technology, Plenum Press, New York (1976)).
A 3% (vol/vol) SRB inoculum (culture age 24–48 hours) was added to the reactor after 3 to 5 days of aerobic biofilm development. […] All antimicrobials were simultaneously added to the nutrient feed and the reactor at appropriate concentrations.

[7] = test system: E. coli BK6; experiment: Antimicrobial activity of concentrated culture supernatants in suspension; format: cell-based; details: buffer + kanamycin 100 μg/mL
Description: B. subtilis BE1500 containing the plasmid pBE92-based constructs expressing the antimicrobial peptide genes was grown in 25 mL of LB medium to late-exponential phase (O.D600=0.70–1.0) at 37° C. The cells were collected by centrifugation at 10,000×g for 10 mins at 4° C., and the supernatant was concentrated 25-fold using a SpeedVac concentrator (Model 200H, Savant Instruments Inc., Holbrook, N.Y.).
Expression of indolicidin and bactenecin in Bacillus was determined in duplicates by exposing E. coli BK6 in suspension to concentrated culture supernatants. E. coli BK6 was grown to an O.D600 of 0.20–0.25, pelleted at room temperature, and resuspended in different volumes (50 or 100 μL) of the concentrated supernatant. The cell suspension was incubated at 30° C. for 1 hour without aeration, and appropriate dilutions were plated on LB agar plates to determine the antimicrobial activity of the supernatant.

[8] = test system: wild-type P. fragi; experiment: Live/Dead stain control visualized with CSLM; format: cell-based; details: 200 μg ml^−1 added to 12-hour culture, visualized after 48 hours
Description: Cells and polysaccharide were stained for 30 min simultaneously in 4 ml of staining solution using the Live/Dead Baclit bacteria viability assay kit protocol (1.125 μl ml^−1 of each stain component, Molecular Probes (Eugene, Oreg.)) and calcofluor (300 μl ml^−1, Sigma (St. Louis, Mo.), Stewart et al. 1995). The live/dead viability kit distinguishes live and dead cells based on membrane integrity; live cells with intact membranes stain green, and dead cells with compromised membranes stain red.
As a control experiment to verify that the Live/Dead stain can be used to quantify populations with live and dead cells, 200 μg ml^−1 of kanamycin was added to a 12-hour wild-type P. fragi culture and visualized with CSLM after 48 hours.

[9] = test system: B. polymyxa 10401; experiment: Susceptibility of host strains to purified antimicrobials (plate counts); format: cell-based; details: one hour exposure at 30° C.
Description: (§4) To determine the susceptibility of the hosts B. subtilis BE1500 and B. polymyxa to the expressed antimicrobials, these strains were grown from a single colony in 25 mL of LB medium with shaking at 37° C. to an O.D600 of 0.40–0.45. One mL aliquots were collected, washed with fresh LB medium and resuspended in 100 μL fresh LB medium in sterile eppendorf tubes. The antimicrobials indolicidin and bactenecin were added (50–100 μg/mL) and the tubes were incubated at 30° C. for one hour without shaking. Appropriate dilutions were spread on LB agar plates and incubated overnight at 37° C. to determine the extent of survival. The results were confirmed by performing two independent experiments.

[10] = test system: B. subtilis BE1500; experiment: as above; format: cell-based; details: one hour exposure at 30° C.
Description: as §4

[11] = test system: Escherichia coli; details: 5–25 μg/mL; cited from earlier work
[12] = test system: B. subtilis WB600; experiment: Susceptibility of host strains to purified antimicrobials (plate counts); format: cell-based; details: one hour exposure at 30° C.
[13] = test system: Staphylococcus aureus; details: 5–25 μg/mL; cited from earlier work

**Q.** Which results are given for `CC(C)C[C@@H]1NC(=O)[C@H](CCCN)NC(=O)[C@H](C(C)C)NC(=O)[C@@H]2CCCN2C(=O)[C@@H](Cc2ccccc2)NC(=O)[C@H](CC(C)C)NC(=O)[C@H](CCCN)NC(=O)[C@H](C(C)C)NC(=O)[C@@H]2CCCN2C(=O)[C@@H](Cc2ccccc2)NC1=O` [gramicidin S] (cyclo(V[Orn]L[dF]PV[Orn]L[dF]P))?
**A.** growth of P. fragi K, in words [1]: grew to saturation; reduction of viability ([2]; D. gigas, 1 h, 25 μg/mL): 92–96%; concentration with inhibitory effect ([2]; this study): 50 to 100 µg/mL; reduction of viability ([3]; D. vulgaris, 1 h, 100 μg/mL): 93%; concentration with inhibitory effect ([3]; this study): 50 to 100 µg/mL; effect on D. vulgaris, in words [4]: completely effective in inhibiting the growth of D. vulgaris; concentration that completely inhibits growth [5]: 3 to 12.5 µg/mL; effect on D. vulgaris, in words ([6]; 100 μg/mL added to P. fragi K biofilm 24 hours before D. vulgaris): the onset of D. vulgaris-induced corrosion of mild steel was delayed; time after D. vulgaris addition without change / increase in Rp ([6]; 100 μg/mL added to P. fragi K biofilm before D. vulgaris): ≥ 80 h

**Q.** What does the source list for `NC[C@H]1O[C@H](O[C@H]2[C@H](O)[C@@H](O[C@H]3O[C@H](CO)[C@@H](O)[C@H](N)[C@H]3O)[C@H](N)C[C@@H]2N)[C@H](O)[C@@H](O)[C@@H]1O` [kanamycin]?
**A.** inhibition at 100 µg/mL ([7]; Escherichia coli, BK6): 100%; E. coli BK6 CFU/mL [7]: 4 × 10^3 CFU/mL; red (dead) share of the sample [8]: approximately 75%

**Q.** For ILPWKWPWWWPWRR [Ind-OH], which “Fold-reduction in cell number” value ([9]; 50 μg/mL) is on record?
**A.** The value was 4.

**Q.** What about the “Fold-reduction in cell number” value ([9]; 100 μg/mL) of the same compound?
**A.** The value was 4.

**Q.** And the “Fold-reduction in cell number” value ([10]; 50 μg/mL)?
**A.** Its value is 6000.

**Q.** And the “Fold-reduction in cell number” value ([10]; 100 μg/mL)?
**A.** The value was 10,000.

**Q.** And the “fold less effective than the amidated form of indolicidin” value ([2]; 25 μg/mL)?
**A.** The value was 10 fold.

**Q.** What about the “fold less effective than the amidated form of indolicidin” value ([3]; 25 μg/mL) of the same compound?
**A.** Its value is 174 fold.

**Q.** And the inhibition [11]?
**A.** The inhibition was 99.9%.

**Q.** And the “Fold-reduction in cell number” value ([12]; 50 μg/mL)?
**A.** The value was 20,000.

**Q.** And the “Fold-reduction in cell number” value ([12]; 100 μg/mL)?
**A.** Its value is 40,000.

**Q.** And the inhibition [13]?
**A.** Its inhibition is 99.9%.
